# Legend:
# [1] = target: T1, alpha3 (ganglionic) nACh receptors (Homo sapiens, UniProt P30926+P32297); assay: calcium-monitoring FLIPR selectivity assay using the native SH-SY5Y cell line; type: cell-based; settings: read-out: Alpha 3 EC50
# T1 construct: using the native SH-SY5Y cell line; endogenous in cells; host or cells: SH-SY5Y
# Source text: Functional FLIPR assays were developed in order to test the selectivity of compounds against the alpha1 (muscular) and alpha3 (ganglionic) nACh receptors and the structurally related 5-HT3 receptor. […] In order to test selectivity against the 5-HT3 receptor, a recombinant cell line was constructed expressing the human 5-HT3A receptor in HEK 293 cells and a calcium-monitoring FLIPR assay employed.
# [2] = target: T2, alpha7 nicotinic acetylcholine receptor (Rattus norvegicus, UniProt Q05941); assay: functional FLIPR assay, alpha7 nAChR stably expressed in GH4C1 cells; type: cell-based; settings: GH4C1 cell line expressing the alpha7 nAChR; concentration-response curves; read-out: Alpha 7 EC50
# T2 construct: expressed in transfected cells
# T2 sequence (Q05941 23-502): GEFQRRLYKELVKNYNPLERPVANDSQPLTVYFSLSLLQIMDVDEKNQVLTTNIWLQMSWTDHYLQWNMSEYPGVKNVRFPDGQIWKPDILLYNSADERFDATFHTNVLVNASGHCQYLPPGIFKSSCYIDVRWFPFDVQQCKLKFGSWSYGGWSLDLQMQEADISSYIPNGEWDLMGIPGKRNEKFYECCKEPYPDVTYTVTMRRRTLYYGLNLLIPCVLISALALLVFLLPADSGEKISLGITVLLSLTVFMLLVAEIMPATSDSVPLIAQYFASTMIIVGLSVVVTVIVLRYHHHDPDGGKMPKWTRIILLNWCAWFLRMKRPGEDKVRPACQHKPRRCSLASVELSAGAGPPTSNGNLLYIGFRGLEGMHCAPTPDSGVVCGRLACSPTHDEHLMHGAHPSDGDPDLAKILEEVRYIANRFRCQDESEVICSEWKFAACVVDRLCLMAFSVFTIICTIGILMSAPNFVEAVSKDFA
# Source text: Rat GH4C1 cells were then transfected with the rat receptor, cloned and analyzed for functional alpha7 nicotinic receptor expression employing a FLIPR assay to measure changes in intracellular calcium concentrations.
# The FLIPR system allows the measurements of real time Ca^2+-concentration changes in living cells using a Ca^2+ sensitive fluorescence dye (such as Fluo4). This instrument enables the screening for agonists and antagonists for alpha 7 nAChR channels stably expressed in GH4C1 cells.
# GH4C1 cells stably transfected with rat-alpha7-nAChR (see above) were used. These cells are poorly adherent and therefore pretreatment of flasks and plates with poly-D-lysine was carried out. Cells are grown in 150 cm^2 T-flasks, filled with 30ml of medium at 37° C. and 5% CO2.
# EC50 and IC50 values were calculated using the IDBS XLfit4.1 software package employing a sigmoidal concentration-response (variable slope) equation:
# Certain compounds of the present disclosure were tested using the functional FLIPR primary screening assay employing the stable recombinant GH4C1 cell line expressing the alpha7 nAChR. Hits identified were validated further by generation of concentration-response curves.
# T1 sequence (P32297 32-505): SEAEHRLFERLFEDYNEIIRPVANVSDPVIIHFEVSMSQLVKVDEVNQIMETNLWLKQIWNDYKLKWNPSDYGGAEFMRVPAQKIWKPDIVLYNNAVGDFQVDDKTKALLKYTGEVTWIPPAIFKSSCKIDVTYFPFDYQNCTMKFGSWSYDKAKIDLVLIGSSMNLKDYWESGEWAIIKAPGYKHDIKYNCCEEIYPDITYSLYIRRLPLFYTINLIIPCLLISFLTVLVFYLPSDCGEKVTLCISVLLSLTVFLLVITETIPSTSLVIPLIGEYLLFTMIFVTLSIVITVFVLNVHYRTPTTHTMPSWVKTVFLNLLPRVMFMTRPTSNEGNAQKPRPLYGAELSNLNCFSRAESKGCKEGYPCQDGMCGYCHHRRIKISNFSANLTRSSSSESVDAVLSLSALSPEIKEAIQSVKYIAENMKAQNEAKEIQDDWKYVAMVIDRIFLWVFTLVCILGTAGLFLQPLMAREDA
# T1 sequence (P30926 22-498): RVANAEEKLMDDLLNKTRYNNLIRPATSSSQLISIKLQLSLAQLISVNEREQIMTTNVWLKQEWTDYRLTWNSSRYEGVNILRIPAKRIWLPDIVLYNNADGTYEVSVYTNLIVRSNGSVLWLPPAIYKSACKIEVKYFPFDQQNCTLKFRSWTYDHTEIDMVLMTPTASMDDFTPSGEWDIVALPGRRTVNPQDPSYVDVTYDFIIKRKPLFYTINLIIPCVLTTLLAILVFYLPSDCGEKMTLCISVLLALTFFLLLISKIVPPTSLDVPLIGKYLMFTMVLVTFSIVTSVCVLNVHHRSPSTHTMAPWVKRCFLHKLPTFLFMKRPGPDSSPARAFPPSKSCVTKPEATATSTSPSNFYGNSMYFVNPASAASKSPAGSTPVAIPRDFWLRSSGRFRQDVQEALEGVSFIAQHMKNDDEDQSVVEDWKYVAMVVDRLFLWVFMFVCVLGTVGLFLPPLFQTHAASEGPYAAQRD
compound,measurement,setting,value
COc1ncccc1-c1ccc(NC(=O)NCCCCN2CCCCC2)cc1,EC50,[1],5670 nM
same,EC50,[2],60 nM

# Reference: US20100016598A1 (WYETH, priority 2008, published 2010)
